The target in assay [1] is CDK4/Cyclin D1 (Homo sapiens (Human), UniProt P11802). As to the kind of experiment: CDK4/Cyclin D1 mobility shift assay. The format is biochemical. The note with it: activated CDK4/Cyclin D1, 3.5 mM ATP, Morrison fit; read-out: CDK4D1 Ki. On the procedure:
The purpose CDK4/Cyclin D1 assay is to evaluate the inhibition (% inhibition, Kiapp and Ki values) in the presence of small molecule inhibitors by using a fluorescence based microfluidic mobility shift assay. […] The mobility shift assay electrophoretically separates the fluorescently labeled peptides (substrate and phosphorylated product) following the kinase reaction. Both substrate and product are measured and the ratio of these values is used to generate % Conversion of substrate to product by the LabChip EZ Reader.
The reaction was stopped after 195 minutes by the addition of 50 μL of 30 mM EDTA. Ki determinations were made from a plot of the fractional velocity as a function of inhibitor concentration fit to the Morrison equation with the enzyme concentration as a variable.
(§1) For CDK4 and CDK6 mobility shift assays, see also Morrison, J. F. (1969) Kinetics of the reversible inhibition of enzyme-catalysed reactions by tight-binding inhibitors, Biochimica et biophysica acta 185, 269-286; and Murphy, D. J. (2004) Determination of accurate KI values for tight-binding enzyme inhibitors: an in silico study of experimental error and assay design, Analytical biochemistry 327, 61-67.

Assay [2] addresses CDK6/Cyclin D3 (Homo sapiens (Human), UniProt Q00534). Kind of assay: CDK6/Cyclin D3 mobility shift assay. The class given is biochemical. The note with it: activated CDK6/Cyclin D3, 3.5 mM ATP, Morrison fit; read-out: CDK6_D3 Ki. Here is the method:
The purpose of the CDK6/Cyclin D3 assay is to evaluate the inhibition (% inhibition, Kiapp and Ki values) in the presence of small molecule inhibitors by using a fluorescence based microfluidic mobility shift assay. […] The mobility shift assay electrophoretically separates the fluorescently labeled peptides (substrate and phosphorylated product) following the kinase reaction. Both substrate and product are measured and the ratio of these values is used to generate % conversion of substrate to product by the LabChip EZ Reader.
The reaction was stopped after 95 minutes by the addition of 50 μL of 30 mM EDTA. Ki determinations were made from a plot of the fractional velocity as a function of inhibitor concentration fit to the Morrison equation with the enzyme concentration as a variable.
as §1

Results on 26 compounds are retold here after US10766884B2 (Pfizer Inc., priority 2018, dated 2020).

For orientation: Ki means the equilibrium dissociation constant of an inhibitor or competing ligand from its target.

Sequence of CDK6/Cyclin D3 (Q00534 whole entry): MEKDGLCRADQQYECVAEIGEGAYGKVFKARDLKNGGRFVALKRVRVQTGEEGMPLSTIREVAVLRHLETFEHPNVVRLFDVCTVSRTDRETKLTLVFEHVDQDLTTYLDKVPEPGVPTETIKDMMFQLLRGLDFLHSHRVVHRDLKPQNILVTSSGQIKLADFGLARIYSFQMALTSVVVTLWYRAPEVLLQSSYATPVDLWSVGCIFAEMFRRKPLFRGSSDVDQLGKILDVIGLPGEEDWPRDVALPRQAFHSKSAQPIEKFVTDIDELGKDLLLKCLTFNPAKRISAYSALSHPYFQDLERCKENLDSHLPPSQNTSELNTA
Sequence of CDK6/Cyclin D3 (P30281 whole entry partner): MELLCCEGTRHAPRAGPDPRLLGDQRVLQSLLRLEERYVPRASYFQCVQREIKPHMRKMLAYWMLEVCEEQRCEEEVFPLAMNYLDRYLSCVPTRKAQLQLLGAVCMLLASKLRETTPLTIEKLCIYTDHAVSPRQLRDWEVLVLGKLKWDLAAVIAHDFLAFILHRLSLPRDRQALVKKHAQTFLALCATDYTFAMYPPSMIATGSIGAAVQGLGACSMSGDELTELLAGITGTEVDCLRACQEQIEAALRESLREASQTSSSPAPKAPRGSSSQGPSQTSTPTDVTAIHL
Sequence of CDK4/Cyclin D1 (P11802 whole entry): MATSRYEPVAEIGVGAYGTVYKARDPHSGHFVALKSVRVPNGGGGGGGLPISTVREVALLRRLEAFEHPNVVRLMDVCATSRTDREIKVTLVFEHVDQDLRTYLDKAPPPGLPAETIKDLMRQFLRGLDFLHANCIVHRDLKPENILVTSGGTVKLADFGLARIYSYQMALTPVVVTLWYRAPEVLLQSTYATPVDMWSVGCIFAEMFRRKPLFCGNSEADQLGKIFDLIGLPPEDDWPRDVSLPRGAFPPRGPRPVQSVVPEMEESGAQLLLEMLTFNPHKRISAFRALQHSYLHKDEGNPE
Sequence of CDK4/Cyclin D1 (P24385 whole entry partner): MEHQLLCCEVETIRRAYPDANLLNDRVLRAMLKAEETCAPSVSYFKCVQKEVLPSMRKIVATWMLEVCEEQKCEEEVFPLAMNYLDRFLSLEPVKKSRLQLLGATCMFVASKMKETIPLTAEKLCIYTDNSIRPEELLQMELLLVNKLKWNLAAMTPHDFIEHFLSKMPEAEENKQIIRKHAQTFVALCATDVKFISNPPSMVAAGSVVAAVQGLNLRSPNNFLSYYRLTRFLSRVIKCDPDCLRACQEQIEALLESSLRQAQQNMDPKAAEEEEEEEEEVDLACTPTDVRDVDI

In the case of `CC(O)c1nc2c(F)cc(-c3nc(N[C@@H]4CCN(S(=O)(=O)C(F)F)C[C@H]4O)ncc3Cl)cc2n1C(C)C` (stereo partly drawn) [Example F09, (3R,4R)-4-({5-chloro-4-[4-fluoro-2-(1-hydroxyethyl)-1-(propan-2-yl)-1H-benzimidazol-6-yl]pyrimidin-2-yl}amino)-1-(difluoromethanesulfonyl)piperidin-3-ol], the Ki in assay [1] stood at 0.6 nM. In the case of `Cc1nc2ccc(-c3nc(N[C@@H]4CCN(S(C)(=O)=O)C[C@H]4O)ncc3Cl)nc2n1C(C)C` [Example A86, (3R,4R)-4-({5-chloro-4-[2-methyl-3-(propan-2-yl)-3H-imidazo[4,5-b]pyridin-5-yl]pyrimidin-2-yl}amino)-1-(methanesulfonyl)piperidin-3-ol], the Ki in assay [1] is 4.7 nM; in assay [2], 23.5 nM. Turning to `CC(C)(F)Cn1c(CO)nc2c(F)cc(-c3nc(N[C@@H]4CCOC[C@H]4O)ncc3Cl)cc21` [Example A64, 1,5-anhydro-3-({5-chloro-4-[4-fluoro-1-(2-fluoro-2-methylpropyl)-2-(hydroxymethyl)-1H-benzimidazol-6-yl]pyrimidin-2-yl}amino)-2,3-dideoxy-D-threo-pentitol], the figures for the Ki in assay [1] and in assay [2] were 2 nM and 10.7 nM, respectively. As to `Cc1nc2c(F)cc(-c3nc(N[C@@H]4CCN(S(C)(=O)=O)C[C@H]4O)ncc3Cl)cc2n1C1CC1` [Example A72, (3R,4R)-4-{[5-chloro-4-(1-cyclopropyl-4-fluoro-2-methyl-1H-benzimidazol-6-yl)pyrimidin-2-yl]amino}-1-(methanesulfonyl)piperidin-3-ol], the results for the Ki in assay [1] and in assay [2] were 0.3 nM and 2.1 nM, respectively. In the same order, the values of `CS(=O)(=O)N1CC[C@@H](Nc2ncc(Cl)c(-c3cc(F)c4nc(CO)n(CC(F)(F)F)c4c3)n2)[C@H](O)C1` [Example A90, (3R,4R)-4-({5-chloro-4-[4-fluoro-2-(hydroxymethyl)-1-(2,2,2-trifluoroethyl)-1H-benzimidazol-6-yl]pyrimidin-2-yl}amino)-1-(methanesulfonyl)piperidin-3-ol] are 0.2 nM and 1.1 nM.

On to `COC(=O)N1CC[C@@H](Nc2ncc(Cl)c(-c3cc(F)c4ncn(C5CCOC5)c4c3)n2)[C@H](O)C1` (single isomer, unassigned) [Example F03], for which the Ki in assay [1] is 2.7 nM; in assay [2] it was 26.4 nM. On to `Cc1nc2c(F)cc(-c3nc(N[C@@H]4CCNC[C@H]4O)ncc3F)cc2n1C(C)C` [Example A37, (3R,4R)-4-({5-fluoro-4-[4-fluoro-2-methyl-1-(propan-2-yl)-1H-benzimidazol-6-yl]pyrimidin-2-yl}amino)piperidin-3-ol], for which the Ki in assay [1] is 3.5 nM; in assay [2], 34.2 nM.

As to `Cc1nc2ncc(-c3nc(N[C@@H]4CCN(S(C)(=O)=O)C[C@H]4O)ncc3Cl)cc2n1C(C)C` [Example A85, (3R,4R)-4-({5-chloro-4-[2-methyl-1-(propan-2-yl)-1H-imidazo[4,5-b]pyridin-6-yl]pyrimidin-2-yl}amino)-1-(methanesulfonyl)piperidin-3-ol], the Ki in assay [1] turned out to be 9.9 nM; in assay [2], 62.8 nM. Regarding `COC(=O)N1CC[C@@H](Nc2ncc(Cl)c(-c3cc(F)c4ncn(C5CCOC5)c4c3)n2)[C@H](O)C1` (single isomer, unassigned) [Example F02], the Ki in assay [1] came to 4.3 nM; in assay [2] it was 39.9 nM. As for `Cc1nc2c(F)cc(-c3nc(N[C@H]4CCN(C)C[C@@H]4O)ncc3F)cc2n1C(C)C` (single isomer, unassigned) [Example F07], the Ki in assay [1] worked out at 15.3 nM; in assay [2], 125 nM. As for `CN1CCC(Nc2ncc(F)c(-c3cc(F)c4ncn(C(C)(C)C)c4c3)n2)CC1` [Example A03], the Ki in assay [1] is 4 nM; in assay [2], 17.3 nM.

As to `CS(=O)(=O)N1CC[C@@H](Nc2ncc(Cl)c(-c3cc(F)c4nc(CO)n(C5CCC5)c4c3)n2)[C@H](O)C1` [Example A65, (3R,4R)-4-({5-chloro-4-[1-cyclobutyl-4-fluoro-2-(hydroxymethyl)-1H-benzimidazol-6-yl]pyrimidin-2-yl}amino)-1-(methanesulfonyl)piperidin-3-ol], the Ki in assay [1] stood at 0.6 nM; in assay [2], 3.5 nM. In the same order, the values of `CC(C)n1c(C2(N)CC2)nc2c(F)cc(-c3nc(N[C@@H]4CCOC[C@H]4O)ncc3Cl)cc21` [Example A43, 3-({4-[2-(1-aminocyclopropyl)-4-fluoro-1-(propan-2-yl)-1H-benzimidazol-6-yl]-5-chloropyrimidin-2-yl}amino)-1,5-anhydro-2,3-dideoxy-D-threo-pentitol] are 4.8 nM and 44 nM. Consider `CC1(n2c(CO)nc3c(F)cc(-c4nc(N[C@@H]5CCOC[C@H]5O)ncc4Cl)cc32)CC1` [Example A63, 1,5-anhydro-3-({5-chloro-4-[4-fluoro-2-(hydroxymethyl)-1-(1-methylcyclopropyl)-1H-benzimidazol-6-yl]pyrimidin-2-yl}amino)-2,3-dideoxy-D-threo-pentitol], for which the Ki in assay [1] was 0.9 nM; in assay [2], 9.7 nM. In the same order, the values of `CC(C)n1c([C@H](C)O)nc2c(F)cc(-c3cc(N[C@@H]4CCOC[C@H]4O)ncc3Cl)cc21` [Example D02, 1,5-anhydro-3-[(5-chloro-4-{4-fluoro-2-[(1S)-1-hydroxyethyl]-1-(propan-2-yl)-1H-benzimidazol-6-yl}pyridin-2-yl)amino]-2,3-dideoxy-D-threo-pentitol] are 1 nM and 9.3 nM. On to `CC(C)n1c(C(N)=O)nc2c(F)cc(-c3nc(N[C@@H]4CCOC[C@H]4O)ncc3Cl)cc21` [Example A33], for which the Ki in assay [1] came out at 8.3 nM; in assay [2] it was 78 nM. In the case of `CC(C)n1cnc2c(F)cc(-c3nc(N[C@@H]4CCN(S(C)(=O)=O)C[C@H]4O)ncc3C(F)(F)F)cc21` [Example B02, (3R,4R)-4-({4-[4-fluoro-1-(propan-2-yl)-1H-benzimidazol-6-yl]-5-(trifluoromethyl)pyrimidin-2-yl}amino)-1-(methanesulfonyl)piperidin-3-ol], the Ki came out at 7.3 nM in assay [1] and 27.1 nM in assay [2]. For the compound `CC(C)n1cnc2c(F)cc(-c3nc(N[C@@H]4CCN(C(=O)C[C@H](N)C(F)(F)F)C[C@H]4O)ncc3Cl)cc21` [Example F31, (3S)-3-amino-1-[(3R,4R)-4-({5-chloro-4-[4-fluoro-1-(propan-2-yl)-1H-benzimidazol-6-yl]pyrimidin-2-yl}amino)-3-hydroxypiperidin-1-yl]-4,4,4-trifluorobutan-1-one], the values for the inhibition constant Ki in assay [1] and in assay [2] were 2.4 nM and 23 nM, respectively. As for `CC1OCC(C)n2c1nc1c(F)cc(-c3nc(N[C@@H]4CCOC[C@H]4O)ncc3Cl)cc12` (single isomer, unassigned) [Example A21], the Ki in assay [2] was 136 nM. `CC(C)n1c([C@@H](C)O)nc2c(F)cc(-c3nc(N[C@H]4CCN(S(C)(=O)=O)C[C@@H]4O)ncc3Cl)cc21` [Example F13, (3S,4S)-4-[(5-chloro-4-{4-fluoro-2-[(1R)-1-hydroxyethyl]-1-(propan-2-yl)-1H-benzimidazol-6-yl}pyrimidin-2-yl)amino]-1-(methanesulfonyl)piperidin-3-ol]: the Ki in assay [1] came to 11.6 nM. For `CC(=O)c1nc2c(F)cc(-c3nc(N[C@@H]4CCN(S(C)(=O)=O)C[C@H]4O)ncc3Cl)cc2n1C(C)C` [Example G01, 1-[6-(5-chloro-2-{[(3R,4R)-3-hydroxy-1-(methanesulfonyl)piperidin-4-yl]amino}pyrimidin-4-yl)-4-fluoro-1-(propan-2-yl)-1H-benzimidazol-2-yl]ethan-1-one], the Ki amounted to 0.4 nM in assay [1] and 5.9 nM in assay [2]. Consider `CC1(C)CNCc2nc3c(F)cc(-c4nc(N[C@@H]5CCOC[C@H]5O)ncc4Cl)cc3n21` [Example A46, 1,5-anhydro-3-{[5-chloro-4-(9-fluoro-4,4-dimethyl-1,2,3,4-tetrahydropyrazino[1,2-a]benzimidazol-7-yl)pyrimidin-2-yl]amino}-2,3-dideoxy-D-threo-pentitol], for which the Ki in assay [1] worked out at 2.3 nM; in assay [2] it was 40.5 nM. For `CNC(=O)c1nc2c(F)cc(-c3nc(N[C@@H]4CCOC[C@H]4O)ncc3Cl)cc2n1C(C)C` [Example A34], the Ki is 11.1 nM in assay [1] and 102 nM in assay [2]. Take `CN1Cc2nc3c(F)cc(-c4nc(N[C@@H]5CCOC[C@H]5O)ncc4Cl)cc3n2C(C)(C)C1` [Example A22]: the Ki in assay [1] amounted to 3.2 nM; in assay [2] it was 49.7 nM. For `CC1OCC(C)n2c1nc1c(F)cc(-c3nc(N[C@@H]4CCOC[C@H]4O)ncc3Cl)cc12` (single isomer, unassigned) [Example A20], in assay [2], the Ki came to 20.4 nM.

Take `CC(C)n1c([C@@H](C)O)nc2c(F)cc(-c3nc(N[C@@H]4CCN(S(C)(=O)=O)C[C@@H]4O)ncc3Cl)cc21` (single isomer, unassigned) [Example F12]: the Ki in assay [1] is 50 nM.
